From patent publication US11512353B2, “Method to predict response to neuropsychiatric drugs using variation in the serotonin 7 receptor (HTR7) gene” (The Regents of the University of California, priority 2018, dated 2022)

Experiments:
[1] = target: norepinephrine transporter (Homo sapiens, UniProt P23975); settings: cited from earlier work
[2] = system: outpatients with moderate to severe unipolar depression; assay: Prospective GENDEP cohort: association of rs7905446 genotype with antidepressant remission; assay type: in vivo, human; settings: TT vs TG/GG, logistic regression adjusted for sex, age and center ID, week 12, remission MADRS≤10
Method: Statistical analysis. The association between drug response and allelic SNPs identified from pooled-sequencing were performed using logistic regression (PLINK version 1.9).. The association between drug response and […] genotype was performed using logistic regression within Caucasian population. χ^2 tests were used to compare the sex distribution between responder and non-responder. Group differences were analyzed using Student's T-test. […] Replication study II in the Genome-based Therapeutic Drugs for Depression ([…]) study. […] is a multicenter part-randomized open-label pharmacogenetic study of 811 outpatients with moderate to severe unipolar depression diagnosed according to DSM-IV and established in the semi-structured SCAN interview. Patients were aged 19 to 72 years with European ancestry for at least two generations. Patients with personal and family history of schizophrenia or bipolar affective disorder and current dependence on alcohol or drugs were excluded from the study. […] Patients with contraindications for one of the drugs were allocated nonrandomly to the other antidepressant. […] The study was approved by ethics boards of all the participating centers. All participants provided written informed consent.

HTR7 [3] = target: HTR7 (Mus musculus, UniProt P32304); settings: in vivo; cited from earlier work
[4] = system: subjects with BD, MDD or SABP diagnosis; assay: Retrospective cohort: association of rs7905446 genotype with self-reported SSRI response (logistic regression); assay type: in vivo, human; settings: TT vs TG/GG, TT associated with poor response, logistic regression adjusted for sex and age, Caucasian subjects
Method: SNP genotyping. Genotyping of rs7905446 (T/G) was performed using TaqMan SNP genotyping assay on 7900HT Fast Real-Time PCR System (Thermo Fisher Scientific, Waltham, Mass., USA) as previously described. The assay included negative controls and was run with the following condition: 95° C. for 10 min followed by 40 cycles of 92° C. for 15 s and 60° C. for 1 min. The genotyping success rate was >95%. Twenty percent of the samples were genotyped in duplicate, with 100% reproducibility.
Statistical analysis. The association between drug response and allelic SNPs identified from pooled-sequencing were performed using logistic regression (PLINK version 1.9).. The association between drug response and rs7905446 genotype was performed using logistic regression within Caucasian population. χ^2 tests were used to compare the sex distribution between responder and non-responder. Group differences were analyzed using Student's T-test. P value<0.05 were considered statistically significant.
Subjects. All subjects (n=497) were ascertained as part of several cohorts collected for genetic studies of BD. Subjects were identified through VA and UCSD clinics, as well as, advertisement and patient support groups. […]
Assessment of SSRI response. […] Subject's response to SSRI's over their lifetime was assessed based on self-reporting. […]

HTR7 [5] = target: HTR7 (Homo sapiens, UniProt P34969); settings: cited from earlier work
HTR7 [6] = settings: chronic treatment; cited from earlier work

HTR7 (Homo sapiens, UniProt P34969), sequence (P34969 whole entry): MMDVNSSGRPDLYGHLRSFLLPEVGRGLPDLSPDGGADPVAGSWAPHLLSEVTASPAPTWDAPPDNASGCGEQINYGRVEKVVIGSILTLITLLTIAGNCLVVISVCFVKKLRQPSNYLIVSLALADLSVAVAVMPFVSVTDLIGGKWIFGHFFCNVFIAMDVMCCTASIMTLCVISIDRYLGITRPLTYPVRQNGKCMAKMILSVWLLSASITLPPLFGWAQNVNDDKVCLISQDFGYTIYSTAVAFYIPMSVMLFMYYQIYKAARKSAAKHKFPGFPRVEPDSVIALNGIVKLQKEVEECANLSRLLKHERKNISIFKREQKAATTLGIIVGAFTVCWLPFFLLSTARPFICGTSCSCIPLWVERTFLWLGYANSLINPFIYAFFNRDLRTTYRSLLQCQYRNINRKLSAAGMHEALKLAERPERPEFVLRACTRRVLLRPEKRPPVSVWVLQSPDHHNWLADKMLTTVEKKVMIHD
HTR7 (Mus musculus, UniProt P32304), sequence (P32304 whole entry): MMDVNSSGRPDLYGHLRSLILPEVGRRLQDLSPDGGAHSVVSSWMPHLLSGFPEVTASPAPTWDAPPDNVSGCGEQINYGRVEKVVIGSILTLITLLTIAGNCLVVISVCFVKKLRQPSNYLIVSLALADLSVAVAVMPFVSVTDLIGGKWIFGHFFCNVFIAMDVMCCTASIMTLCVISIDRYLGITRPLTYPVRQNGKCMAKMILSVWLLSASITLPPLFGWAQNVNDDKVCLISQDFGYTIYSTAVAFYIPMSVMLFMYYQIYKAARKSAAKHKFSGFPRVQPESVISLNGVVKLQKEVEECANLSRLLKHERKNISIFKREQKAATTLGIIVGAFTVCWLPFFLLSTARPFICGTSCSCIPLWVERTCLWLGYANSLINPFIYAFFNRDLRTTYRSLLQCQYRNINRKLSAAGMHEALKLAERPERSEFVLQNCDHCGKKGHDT
norepinephrine transporter, sequence (P23975 whole entry, species assumed): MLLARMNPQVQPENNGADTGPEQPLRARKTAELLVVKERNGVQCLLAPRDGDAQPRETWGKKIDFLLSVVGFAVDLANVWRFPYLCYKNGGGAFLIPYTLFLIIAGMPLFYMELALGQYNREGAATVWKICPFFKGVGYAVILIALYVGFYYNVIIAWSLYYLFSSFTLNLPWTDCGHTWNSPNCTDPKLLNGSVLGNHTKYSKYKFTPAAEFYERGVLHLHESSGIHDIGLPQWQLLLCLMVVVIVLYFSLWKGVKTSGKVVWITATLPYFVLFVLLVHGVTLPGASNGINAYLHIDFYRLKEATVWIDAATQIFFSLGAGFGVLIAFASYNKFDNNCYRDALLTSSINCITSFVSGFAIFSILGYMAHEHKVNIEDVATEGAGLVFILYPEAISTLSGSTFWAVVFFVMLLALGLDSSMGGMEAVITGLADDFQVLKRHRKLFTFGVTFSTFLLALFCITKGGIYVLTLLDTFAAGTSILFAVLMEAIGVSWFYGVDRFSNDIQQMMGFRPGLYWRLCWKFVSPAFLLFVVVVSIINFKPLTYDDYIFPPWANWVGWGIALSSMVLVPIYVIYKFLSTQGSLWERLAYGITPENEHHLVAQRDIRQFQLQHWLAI

| SMILES | affinity to HTR7 (HTR7 [5]) | other results |
| --- | --- | --- |
| CN(C)CCC[C@@]1(c2ccc(F)cc2)OCc2cc(C#N)ccc21 [Escitalopram] | – | effect on norepinephrine transporter [1]: no direct effect; OR, Rs7905446, remitter vs. non-remitter [2]: 1.669 |
| CC1CCN(CC[C@H]2CCCN2S(=O)(=O)c2cccc(O)c2)CC1 [SB-269970] | – | effects of SSRI and NARI on blockade of HTR7 (HTR7 [3]): potentiate |
| Fc1ccc([C@@H]2CCNC[C@H]2COc2ccc3c(c2)OCO3)cc1 [Paroxetine] | – | OR, Rs7905446, responder vs. non-responder [4]: 5.250 |
| CN(C)CCC=C1c2ccccc2CCc2ccccc21 [amitriptyline, Amitriptyline] | high affinity | – |
| O=C1[C@H]2CCCC[C@H]2C(=O)N1CCCCN1CCN(c2nsc3ccccc23)CC1 [perospirone, Perospirone] | high affinity | – |
| CNCCC(Oc1ccc(C(F)(F)F)cc1)c1ccccc1 (stereo not drawn) [fluoxetine, Fluoxetine] | – | HTR7 expression (HTR7 [6]): downregulates |
| CNCCC=C1c2ccccc2CCc2ccccc21 [Nortriptyline, Nortyptiline] | – | OR, Rs7905446, remitter vs. non-remitter [2]: 0.694 |
| Clc1ccc2c(c1)C(N1CCNCC1)=Nc1ccccc1O2 [amoxapine, Amoxapine] | high affinity | – |
| O=C1[C@@H]2[C@H]3CC[C@H](C3)[C@@H]2C(=O)N1C[C@@H]1CCCC[C@H]1CN1CCN(c2nsc3ccccc23)CC1 [lurasidone, Lurasidone] | high affinity | – |
| CCN1CCCC1CNC(=O)c1cc(S(=O)(=O)CC)c(N)cc1OC (stereo not drawn) [amisulpride, Amisulpride] | high affinity | – |
| Cc1nc2n(c(=O)c1CCN1CCC(c3noc4cc(F)ccc34)CC1)CCCC2 [risperidone, Risperidone] | high affinity | – |
